{
  "source": "patent EP0745083B1",
  "about": "“2-HETEROARYL-5,11-DIHYDRO-6H-DIPYRIDO [3,2-b:2',3'-e][1,4]DIAZEPINES AND THEIR USE IN THE PREVENTION OR TREATMENT OF HIV INFECTION” (BOEHRINGER INGELHEIM PHARMACEUTICALS INC., priority 1994, dated 1995)",
  "key": {"HIV-1 RT Y181C": {"target": "T1, HIV-1 RT Y181C (Human immunodeficiency virus type 1 group M subtype B, UniProt P03367, Y780C)", "T1 construct": "Utilization of mutant RT eraymes (Y181C and Y181L, prepared by site-directed mutagenesis); made in house", "test": "Reverse Transcriptase (RT) Assay, Y181C mutant enzyme", "assay_type": "biochemical, Human Immunodeficiency Virus (HIV-1)", "settings": "1 µM compound, read-out: Reverse Transciptase Assay % inhibition (1 µM) Y181C", "excerpt": "Among the enzymes for which Human Immunodeficiency Virus (HIV-1) encodes is a reverse transcriptase (1), so-named because it transcribes a DNA copy from an RNA template. This activity can be quantitatively measured in a cell-free enzyme assay, which has been previously described (2), and is based upon the observation that reverse transcriptase is able to use a synthetic template [poly r(C) primed with oligo d(G)] to transcribe a radio-labelled, acid-precipitable DNA strand utilizing ^3H-dGTP as a substrate. The assay described below utilizes the wild type (WT) enzyme, which is the predominant form of the enzyme observed in patients infected with HIV-1. Utilization of mutant RT eraymes (Y181C and Y181L, prepared by site-directed mutagenesis in which the tyrosine residue at codon 181 has been replaced by a cysteine or a leucine residue, respectively) and analogous assay conditions allows compounds to be evaluated for their effectiveness at inhibiting these mutant enzymes.\nThe 2X concentrated stock reaction mixture is aliquoted and stored at -20°C. The mixture is stable and thawed for use in each assay. This enzyme assay has been adapted to a 96 well microtiter plate system, and has been previously described (6). Tris buffer (50 mM, pH 7.4), vehicle (solvent diluted to match the compound dilution), or compounds in vehicle are dispensed into 96-well microtiter plates (10µL/well; 3 wells/ compound). The HIV-1 RT enzyme is thawed, diluted in 50mM Tris pH 7.4 so that fifteen µL of diluted enzyme contain 0.001 Unit (one unit is that amount of enzyme to transform 1 micromole of substrate per minute at 25°C), and fifteen µL are dispensed per well. Twenty µL of 0.12-0.5M EDTA are added to the first three wells of the microtiter plate. EDTA chelates the Mg^++ present and prevents reverse transcription. This group serves as background polymerization which is subtracted from all other groups. Twenty-five ul of the 2X reaction mixture are added to all wells and the assay is allowed to incubate at room temperature for 60 minutes. The assay is terminated by precipitating the DNA in each well with 50µL of 10% trichloracetic acid (TCA) (10% w/v) in sodium pyrophosphate (1% w/v). The microtiter plate is incubated for 15 minutes at 4°C and the precipitate is fixed onto #30 glass fiber paper (Schleicher & Schuell) using a Skatron semi-automatic harvester. The filters are then washed with additional TCA (5%) containing sodium pyrophosphate (1%), rinsed with aqueous ethanol (70%), dried, and transferred to scintillation vials (6). Each vial receives 2 mL of scintillation cocktail and is counted in a Beckman beta counter. The calculation for percent inhibition is as follows: % inhibition =(CPM Mean Test Value - CPM Mean Control Value X100)/(CPM Mean Control Value) [formula]"}, "HIV-1 RT Y188L": {"target": "T2, HIV-1 RT Y188L (Human immunodeficiency virus type 1 group M subtype B, UniProt P03367, Y787L)", "T2 construct": "effective against the reverse transcriptase of many mutant viruses; made in house", "test": "Reverse Transcriptase (RT) Assay, Y188L mutant enzyme", "assay_type": "biochemical, Human Immunodeficiency Virus (HIV-1)", "settings": "1 µM compound"}, "[1]": {"system": "HTLV-IIIB strain of HIV-1", "test": "Syncytia (human T-cell culture) assay", "assay_type": "cell-based", "settings": "Human immunodeficiency virus 1, IIIB, 96 h; c8166 cells; read four days after virus challenge", "description": "In order to confirm that compounds which are active in the RT Assay also have the ability to inhibit HIV replication in a living system, compounds according to the invention were also tested in the human T-Cell Culture (Syncytia) Assay described below.\nFormation of syncytia is a feature of in vitro cultures of CD4+ T-cells infected with HIV-1. In this assay, T-cells are treated with a putative replication inhibiting compound and then infected with HIV-1. After incubation, the culture is checked for the formation of syncytia. The absence or reduction in the number of syncytia is used as a measure of the test compound's ability to inhibit HIV replication.\nThe target cells, designated c8166, are a subclone of human lymphoma cells of T-cell origin and are established at an initial density of 5x10^4 per 100 ul in RPMI 1640 (+ 10% fetal bovine serum) culture medium in 96 well flat bottom plates. A selected amount of test compound, dissolved in DMSO, is included. After 24 hours, 50-100 TCID50's (the dose that results in induced effect in 50% of test cultures) of the HTLV-IIIB strain of HIV-1 (2) are inoculated into each culture. Control cultures receive compound or virus only. Four days after virus challenge, cultures are visually examined for the frequency and distribution of virus-induced giant cell syncytia. The percent inhibition by the test compound is determined by comparison with control values. Confirmation of the presence or absence of virus replication is accomplished by harvesting the cell free culture fluids from all experimental groups to determine the presence or absence of infectious progeny through the induction of syncytia formation in secondary human T-cell cultures after 3 days."}},
  "note": "pIC50: −log10 of the molar value.",
  "data": [
    {"smiles": "CCN1c2ncccc2C(=O)N(C)c2ccc(-c3cn[nH]c3)nc21", "note": "[Example 1, 5,11-Dihydro-11-ethyl-5-methyl-2-(4-pyrazolyl)-6H-dipyrido[3,2-b:2'3'-e][1,4]diazepin-6-one]", "values": [
      {"measurement": "inhibition at 1 µM", "setting": "HIV-1 RT Y181C", "result": 96, "unit": "%"},
      {"measurement": "Reverse Transciptase Assay % inhibition (1 µM) Y188L", "setting": "HIV-1 RT Y188L; 1 µM", "result": 77, "unit": "%"},
      {"measurement": "pIC50", "setting": "[1]", "result": 7.40}
    ]},
    {"smiles": "CN1C(=O)c2cccnc2N(C2CC2)c2nc(-c3cn[nH]c3)ccc21", "note": "[Example 6, 5,11-Dihydro-5-methyl-11-c-propyl-2-(4-pyrazolyl)-6H-dipyrido[3,2-b:2',3'-e][1,4]diazepin-6-one]", "values": [
      {"measurement": "inhibition at 1 µM", "setting": "HIV-1 RT Y181C", "result": 87, "unit": "%"},
      {"measurement": "Reverse Transciptase Assay % inhibition (1 µM) Y188L", "setting": "HIV-1 RT Y188L", "result": 84, "unit": "%"},
      {"measurement": "pIC50", "setting": "[1]", "result": 8.00}
    ]},
    {"smiles": "CCN1c2ncccc2C(=O)N(C)c2ccc(-c3cc[nH]c3)nc21", "note": "[Example 12, 5,11-Dihydro-11-ethyl-5-methyl-2-(3-pyrrolyl)-6H-dipyrido[3,2-b:2',3'-e][1,4]diazepin-6-one]", "values": [
      {"measurement": "inhibition at 1 µM", "setting": "HIV-1 RT Y181C", "result": 91, "unit": "%"},
      {"measurement": "pIC50", "setting": "[1]", "result": 7.40}
    ]},
    {"smiles": "CN1C(=O)c2cccnc2N(C2CC2)c2nc(-c3cc[nH]c3)ccc21", "note": "[Example 25, 11-Cyclopropyl-5,11-dihydro-5-methyl-2-(3-pyrrolyl)-6H-dipyrido[3,2-b:2',3'-e][1,4]diazepin-6-one]", "values": [
      {"measurement": "inhibition at 1 µM", "setting": "HIV-1 RT Y181C", "result": 86, "unit": "%"},
      {"measurement": "Reverse Transciptase Assay % inhibition (1 µM) Y188L", "setting": "HIV-1 RT Y188L", "result": 80, "unit": "%"},
      {"measurement": "pIC50", "setting": "[1]", "result": 4.10}
    ]}
  ]
}
